{"source": "patent US12404259B2", "about": "“Inhibitors of extracellular signal-regulated kinase” (GEN1E LIFESCIENCES INC., priority 2023, dated 2025)", "format_in_all_cases": "cell-based", "key": {"[1]": {"test_system": "melanoma cell line RPMI-7951", "assay": "Cytotoxicity in cancer cell lines (CellTiter-Glo), RPMI-7951", "conditions": "Homo sapiens, RPMI-7951 cells, mean of three tests", "source_text": "(§1) All cells were obtained from ATCC. […] Normocin® was obtained from InvivoGen. FBS was obtained from Gibco. […] All test compounds were synthesized as described herein."}, "melanoma cell line A375": {"test_system": "melanoma cell line A375", "assay": "Cytotoxicity in cancer cell lines (CellTiter-Glo), A375", "conditions": "Homo sapiens, A-375, A375 cells, mean of three tests", "source_text": "as §1"}, "[2]": {"test_system": "human pancreatic carcinoma cell line PL45", "assay": "Cytotoxicity in cancer cell lines (CellTiter-Glo), PL45", "conditions": "PL45 cells, mean of three tests", "source_text": "as §1"}, "[3]": {"test_system": "glioblastoma cell line U87", "assay": "Cytotoxicity in cancer cell lines (CellTiter-Glo), U87", "conditions": "Homo sapiens, U-87 MG, U87 cells, mean of three tests", "source_text": "as §1"}, "[4]": {"test_system": "immortalized human T lymphocyte Jurkat cells", "assay": "Cytotoxicity in cancer cell lines (CellTiter-Glo), Jurkat", "conditions": "mean of three tests", "source_text": "as §1"}, "[5]": {"conditions": "48 hours, read-out: Cytotoxicity EC50 at 48 hours, A375"}, "[6]": {"conditions": "48 hours, read-out: Cytotoxicity EC50 at 48 hours, PL45"}}, "note": "Read-outs that look alike come from different tables or passages of the source."}
{"smiles": "O=S1(=O)C=CC(OS(=O)(=O)c2ccc(Oc3ccccc3)cc2)C1", "note": "(centres unmarked) [Compound 1, 1,1-dioxido-2,3-dihydrothiophen-3-yl 4-phenoxybenzenesulfonate]", "values": [{"measurement": "EC50", "setting": "[1]; 48 hours, read-out: Cytotoxicity EC50 at 48 hours, RPMI", "value": 600, "unit": "nM"}, {"measurement": "EC50", "setting": "[1]; 72 hours, read-out: Cytotoxicity EC50 at 72 hours, RPMI", "value": 200, "unit": "nM"}, {"measurement": "EC50", "setting": "melanoma cell line A375; [5]", "value": 2500, "unit": "nM"}, {"measurement": "EC50", "setting": "melanoma cell line A375; 72 hours, read-out: Cytotoxicity EC50 at 72 hours, A375", "value": 13000, "unit": "nM"}, {"measurement": "EC50", "setting": "[2]; [6]", "value": 2100, "unit": "nM"}, {"measurement": "EC50", "setting": "[2]; 72 hours, read-out: Cytotoxicity EC50 at 72 hours, PL45", "value": 200, "unit": "nM"}, {"measurement": "EC50", "setting": "[3]; 48 hours, read-out: Cytotoxicity EC50 at 48 hours, U87", "value": 1300, "unit": "nM"}, {"measurement": "EC50", "setting": "[3]; 72 hours, read-out: Cytotoxicity EC50 at 72 hours, U87", "value": 900, "unit": "nM"}, {"measurement": "EC50", "setting": "[4]; 48 hours, read-out: Cytotoxicity EC50 at 48 hours, Jurkat", "value": 400, "unit": "nM"}, {"measurement": "EC50", "setting": "[4]; 72 hours, read-out: Cytotoxicity EC50 at 72 hours, Jurkat", "value": 200, "unit": "nM"}]}
{"smiles": "O=S1(=O)C=C[C@H](OS(=O)(=O)c2ccc(Oc3ccccc3)cc2)C1", "note": "[Compound 1a, (S)-1,1-dioxido-2,3-dihydrothiophen-3-yl 4-phenoxybenzenesulfonate]", "values": [{"measurement": "EC50", "setting": "melanoma cell line A375; [5]", "value": 1300, "unit": "nM"}, {"measurement": "EC50", "setting": "[2]; [6]", "value": 2100, "unit": "nM"}]}
{"smiles": "O=S1(=O)C=C[C@@H](OS(=O)(=O)c2ccc(Oc3ccccc3)cc2)C1", "note": "[Compound 1b, (R)-1,1-dioxido-2,3-dihydrothiophen-3-yl 4-phenoxybenzenesulfonate]", "values": [{"measurement": "EC50", "setting": "melanoma cell line A375; [5]", "value": 2500, "unit": "nM"}, {"measurement": "EC50", "setting": "[2]; [6]", "value": 3000, "unit": "nM"}]}
